PubChem BioAssay AID2060332 (Molecular Pharmacology Branch, DTP, NCI, 2025)

Tested on: LG0567-F671-PDC multi-cell spheroid viability
Test: Anticancer human tumor LG0567-F671-PDC patient-derived lung adenocarcinoma cell line growth inhibition [IpAb]
Details: for IC50: curve of first compound; for viability, T/C: stronger effect = lower value
Procedure, shortened: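 Spheroids of 60% malignant cells, 25% HUVEC and 15% MSC were exposed to targeted agents combined with ipatasertib or abemaciclib. Doses started at or near clinical Cmax (10 microM when unknown) and fell in half-log steps.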

[1] = second compound 0.1 µM, first compound 0.0316 µM
[2] = second compound 0.1 µM, first compound 0.1 µM
[3] = second compound 0.1 µM, first compound 0.316 µM
[4] = second compound 0.1 µM, first compound 1 µM
[5] = second compound 0.1 µM, first compound 3.16 µM
[6] = second compound 0.1 µM, first compound 10 µM
[7] = second compound 0.316 µM, first compound 0.0316 µM
[8] = second compound 0.316 µM, first compound 0.1 µM
[9] = second compound 0.316 µM, first compound 0.316 µM
[10] = second compound 0.316 µM, first compound 1 µM
[11] = second compound 0.316 µM, first compound 3.16 µM
[12] = second compound 0.316 µM, first compound 10 µM
[13] = second compound 1 µM, first compound 0.0316 µM
[14] = second compound 1 µM, first compound 0.1 µM
[15] = second compound 1 µM, first compound 0.316 µM
[16] = second compound 1 µM, first compound 1 µM
[17] = second compound 1 µM, first compound 3.16 µM
[18] = second compound 1 µM, first compound 10 µM
[19] = second compound 3.16 µM, first compound 0.0316 µM
[20] = second compound 3.16 µM, first compound 0.1 µM
[21] = second compound 3.16 µM, first compound 0.316 µM
[22] = second compound 3.16 µM, first compound 1 µM
[23] = second compound 3.16 µM, first compound 3.16 µM
[24] = second compound 3.16 µM, first compound 10 µM
[25] = second compound 10 µM, first compound 0.0316 µM
[26] = second compound 10 µM, first compound 0.1 µM
[27] = second compound 10 µM, first compound 0.316 µM
[28] = second compound 10 µM, first compound 1 µM
[29] = second compound 10 µM, first compound 3.16 µM
[30] = second compound 10 µM, first compound 10 µM
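Also: viability read after 7 days of drug exposure.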
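For viability, T/C in this document: 100% = DMSO vehicle control luminescence.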

SMILES: C=CC(=O)N1CCN(c2nc(=O)n(-c3c(C)ccnc3C(C)C)c3nc(-c4c(O)cccc4F)c(F)cc23)C(C)C1 (stereo not given) + CC(C)NCC(C(=O)N1CCN(c2ncnc3c2C(C)CC3O)CC1)c1ccc(Cl)cc1
- IC50 (second compound 0.1 µM): < 31.6 nM
- IC50 (second compound 0.316 µM): < 31.6 nM
- IC50 (second compound 1 µM): < 31.6 nM
- IC50 (second compound 3.16 µM): < 31.6 nM
- IC50 (second compound 10 µM): < 31.6 nM
- viability, T/C [1]: 20%
- viability, T/C [2]: 15.1%
- viability, T/C [3]: 15.1%
- viability, T/C [4]: 14.7%
- viability, T/C [5]: 15.9%
- viability, T/C [6]: 16.6%
- viability, T/C [7]: 12.9%
- viability, T/C [8]: 16.1%
- viability, T/C [9]: 15.5%
- viability, T/C [10]: 14.8%
- viability, T/C [11]: 8.74%
- viability, T/C [12]: 9.44%
- viability, T/C [13]: 13.8%
- viability, T/C [14]: 13.9%
- viability, T/C [15]: 13.1%
- viability, T/C [16]: 10.5%
- viability, T/C [17]: 10.2%
- viability, T/C [18]: 8.39%
- viability, T/C [19]: 14.9%
- viability, T/C [20]: 15.8%
- viability, T/C [21]: 11.4%
- viability, T/C [22]: 10.6%
- viability, T/C [23]: 10.4%
- viability, T/C [24]: 10.6%
- viability, T/C [25]: 13.5%
- viability, T/C [26]: 11%
- viability, T/C [27]: 10.1%
- viability, T/C [28]: 10%
- viability, T/C [29]: 12.5%
- viability, T/C [30]: 9.01%

SMILES: CC(C)(C)c1cnc(CSc2cnc(NC(=O)C3CCNCC3)s2)o1 + CC(C)NCC(C(=O)N1CCN(c2ncnc3c2C(C)CC3O)CC1)c1ccc(Cl)cc1
- IC50 (second compound 0.1 µM): 169 nM
- IC50 (second compound 0.316 µM): 137 nM
- IC50 (second compound 1 µM): 158 nM
- IC50 (second compound 3.16 µM): 152 nM
- IC50 (second compound 10 µM): 148 nM
- viability, T/C (second compound 0.1 µM, first compound 0.00949 µM): 117%
- viability, T/C (second compound 0.1 µM, first compound 0.03 µM): 110%
- viability, T/C (second compound 0.1 µM, first compound 0.0949 µM): 96.3%
- viability, T/C (second compound 0.1 µM, first compound 0.3 µM): 3.55%
- viability, T/C (second compound 0.1 µM, first compound 0.949 µM): 1.37%
- viability, T/C (second compound 0.1 µM, first compound 3 µM): 0.93%
- viability, T/C (second compound 0.316 µM, first compound 0.00949 µM): 73.6%
- viability, T/C (second compound 0.316 µM, first compound 0.03 µM): 111%
- viability, T/C (second compound 0.316 µM, first compound 0.0949 µM): 72.7%
- viability, T/C (second compound 0.316 µM, first compound 0.3 µM): 2.55%
- viability, T/C (second compound 0.316 µM, first compound 0.949 µM): 1.26%
- viability, T/C (second compound 0.316 µM, first compound 3 µM): 0.62%
- viability, T/C (second compound 1 µM, first compound 0.00949 µM): 95.6%
- viability, T/C (second compound 1 µM, first compound 0.03 µM): 117%
- viability, T/C (second compound 1 µM, first compound 0.0949 µM): 88.8%
- viability, T/C (second compound 1 µM, first compound 0.3 µM): 2.06%
- viability, T/C (second compound 1 µM, first compound 0.949 µM): 0.88%
- viability, T/C (second compound 1 µM, first compound 3 µM): 0.72%
- viability, T/C (second compound 3.16 µM, first compound 0.00949 µM): 97.9%
- viability, T/C (second compound 3.16 µM, first compound 0.03 µM): 113%
- viability, T/C (second compound 3.16 µM, first compound 0.0949 µM): 82.9%
- viability, T/C (second compound 3.16 µM, first compound 0.3 µM): 2.53%
- viability, T/C (second compound 3.16 µM, first compound 0.949 µM): 0.89%
- viability, T/C (second compound 3.16 µM, first compound 3 µM): 0.79%
- viability, T/C (second compound 10 µM, first compound 0.00949 µM): 79.2%
- viability, T/C (second compound 10 µM, first compound 0.03 µM): 74.1%
- viability, T/C (second compound 10 µM, first compound 0.0949 µM): 88%
- viability, T/C (second compound 10 µM, first compound 0.3 µM): 1.97%
- viability, T/C (second compound 10 µM, first compound 0.949 µM): 0.87%
- viability, T/C (second compound 10 µM, first compound 3 µM): 0.7%

SMILES: Cn1ncc(Cl)c1-c1cc(C(=O)NC(CN)Cc2cccc(F)c2)sc1Cl (stereo not given) + CC(C)NCC(C(=O)N1CCN(c2ncnc3c2C(C)CC3O)CC1)c1ccc(Cl)cc1
- IC50 (second compound 0.1 µM): 3220 nM
- IC50 (second compound 0.316 µM): 3410 nM
- IC50 (second compound 1 µM): 1910 nM
- IC50 (second compound 3.16 µM): 3020 nM
- IC50 (second compound 10 µM): 2390 nM
- viability, T/C [1]: 68.7%
- viability, T/C [2]: 68.3%
- viability, T/C [3]: 74.8%
- viability, T/C [4]: 81.1%
- viability, T/C [5]: 50.8%
- viability, T/C [6]: 0.2%
- viability, T/C [7]: 79.6%
- viability, T/C [8]: 81.4%
- viability, T/C [9]: 81.8%
- viability, T/C [10]: 61.7%
- viability, T/C [11]: 58.2%
- viability, T/C [12]: 0.18%
- viability, T/C [13]: 71.1%
- viability, T/C [14]: 89.5%
- viability, T/C [15]: 71.3%
- viability, T/C [16]: 67.1%
- viability, T/C [17]: 37.1%
- viability, T/C [18]: 0.16%
- viability, T/C [19]: 70%
- viability, T/C [20]: 82.5%
- viability, T/C [21]: 76.3%
- viability, T/C [22]: 51.5%
- viability, T/C [23]: 57%
- viability, T/C [24]: 0.39%
- viability, T/C [25]: 77.5%
- viability, T/C [26]: 76.9%
- viability, T/C [27]: 83.6%
- viability, T/C [28]: 60.2%
- viability, T/C [29]: 46.6%
- viability, T/C [30]: 0.19%

SMILES: Cn1nccc1Nc1nccc(-c2ccn(C(CO)c3ccc(Cl)c(F)c3)c(=O)c2)n1 (stereo not given) + CC(C)NCC(C(=O)N1CCN(c2ncnc3c2C(C)CC3O)CC1)c1ccc(Cl)cc1
- IC50 (second compound 0.1 µM): 128 nM
- IC50 (second compound 0.316 µM): 79.9 nM
- IC50 (second compound 1 µM): 152 nM
- IC50 (second compound 3.16 µM): 160 nM
- IC50 (second compound 10 µM): 192 nM
- viability, T/C [1]: 60.9%
- viability, T/C [2]: 51.7%
- viability, T/C [3]: 44.4%
- viability, T/C [4]: 34.2%
- viability, T/C [5]: 29.1%
- viability, T/C [6]: 23.9%
- viability, T/C [7]: 62.1%
- viability, T/C [8]: 45.6%
- viability, T/C [9]: 36.7%
- viability, T/C [10]: 32.7%
- viability, T/C [11]: 26%
- viability, T/C [12]: 21.3%
- viability, T/C [13]: 62.4%
- viability, T/C [14]: 52.9%
- viability, T/C [15]: 43.8%
- viability, T/C [16]: 25.9%
- viability, T/C [17]: 20.2%
- viability, T/C [18]: 15.9%
- viability, T/C [19]: 67.2%
- viability, T/C [20]: 58%
- viability, T/C [21]: 38.6%
- viability, T/C [22]: 31.7%
- viability, T/C [23]: 19.3%
- viability, T/C [24]: 9.79%
- viability, T/C [25]: 60.1%
- viability, T/C [26]: 57.4%
- viability, T/C [27]: 44.8%
- viability, T/C [28]: 27.2%
- viability, T/C [29]: 16.7%
- viability, T/C [30]: 9.92%

SMILES: Cn1ncnc1[C@H]1c2n[nH]c(=O)c3cc(F)cc(c23)N[C@@H]1c1ccc(F)cc1 + CC(C)NCC(C(=O)N1CCN(c2ncnc3c2C(C)CC3O)CC1)c1ccc(Cl)cc1
- IC50 (second compound 0.1 µM): 21.9 nM
- IC50 (second compound 0.316 µM): 9.77 nM
- IC50 (second compound 1 µM): 18.1 nM
- IC50 (second compound 3.16 µM): 38.1 nM
- IC50 (second compound 10 µM): 20.5 nM
- viability, T/C (second compound 0.1 µM, first compound 0.000316 µM): 104%
- viability, T/C (second compound 0.1 µM, first compound 0.001 µM): 97.9%
- viability, T/C (second compound 0.1 µM, first compound 0.00316 µM): 68.9%
- viability, T/C (second compound 0.1 µM, first compound 0.01 µM): 64.9%
- viability, T/C [1]: 42%
- viability, T/C [2]: 41.1%
- viability, T/C (second compound 0.316 µM, first compound 0.000316 µM): 69.1%
- viability, T/C (second compound 0.316 µM, first compound 0.001 µM): 70.5%
- viability, T/C (second compound 0.316 µM, first compound 0.00316 µM): 64.1%
- viability, T/C (second compound 0.316 µM, first compound 0.01 µM): 44.9%
- viability, T/C [7]: 56.4%
- viability, T/C [8]: 47.8%
- viability, T/C (second compound 1 µM, first compound 0.000316 µM): 73.6%
- viability, T/C (second compound 1 µM, first compound 0.001 µM): 74.5%
- viability, T/C (second compound 1 µM, first compound 0.00316 µM): 75%
- viability, T/C (second compound 1 µM, first compound 0.01 µM): 68.5%
- viability, T/C [13]: 27.8%
- viability, T/C [14]: 37.7%
- viability, T/C (second compound 3.16 µM, first compound 0.000316 µM): 79.3%
- viability, T/C (second compound 3.16 µM, first compound 0.001 µM): 71.3%
- viability, T/C (second compound 3.16 µM, first compound 0.00316 µM): 77.5%
- viability, T/C (second compound 3.16 µM, first compound 0.01 µM): 59.2%
- viability, T/C [19]: 53.6%
- viability, T/C [20]: 37.6%
- viability, T/C (second compound 10 µM, first compound 0.000316 µM): 63.9%
- viability, T/C (second compound 10 µM, first compound 0.001 µM): 70.5%
- viability, T/C (second compound 10 µM, first compound 0.00316 µM): 70.6%
- viability, T/C (second compound 10 µM, first compound 0.01 µM): 50.8%
- viability, T/C [25]: 49.6%
- viability, T/C [26]: 35.3%
